Results from patent US7846959B2, “Raf modulators and methods of use” (Exelixis, Inc., priority 2004, dated 2010).
Like-named read-outs stand apart in the source and are kept apart here.

What was measured:
[1] = biological target: c-Raf (Homo sapiens, UniProt P04049); assay: Luciferase-coupled chemiluminescence kinase assay (ATP consumption), c-Raf; type: biochemical
Method in brief: (§1)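 ATP depletion, limited to 25-60%, read by luciferase-luciferin chemiluminescence gives IC50 values. Before the 3 hr ambient-temperature kinase reaction with ATP, compound and […] enzyme were preincubated 30 minutes at room temperature in Tris pH 7.5 buffer with MgCl2, TX-100 and DTT.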

[2] = biological target: B-Raf (Homo sapiens, UniProt P15056); assay: Luciferase-coupled chemiluminescence kinase assay (ATP consumption), B-Raf; type: biochemical
Method in brief: as §1

[3] = read-out: cRaf-1 (inhibition indicated as IC50)
[4] = read-out: bRaf (inhibition indicated as IC50)

Chain of c-Raf (P04049 whole entry): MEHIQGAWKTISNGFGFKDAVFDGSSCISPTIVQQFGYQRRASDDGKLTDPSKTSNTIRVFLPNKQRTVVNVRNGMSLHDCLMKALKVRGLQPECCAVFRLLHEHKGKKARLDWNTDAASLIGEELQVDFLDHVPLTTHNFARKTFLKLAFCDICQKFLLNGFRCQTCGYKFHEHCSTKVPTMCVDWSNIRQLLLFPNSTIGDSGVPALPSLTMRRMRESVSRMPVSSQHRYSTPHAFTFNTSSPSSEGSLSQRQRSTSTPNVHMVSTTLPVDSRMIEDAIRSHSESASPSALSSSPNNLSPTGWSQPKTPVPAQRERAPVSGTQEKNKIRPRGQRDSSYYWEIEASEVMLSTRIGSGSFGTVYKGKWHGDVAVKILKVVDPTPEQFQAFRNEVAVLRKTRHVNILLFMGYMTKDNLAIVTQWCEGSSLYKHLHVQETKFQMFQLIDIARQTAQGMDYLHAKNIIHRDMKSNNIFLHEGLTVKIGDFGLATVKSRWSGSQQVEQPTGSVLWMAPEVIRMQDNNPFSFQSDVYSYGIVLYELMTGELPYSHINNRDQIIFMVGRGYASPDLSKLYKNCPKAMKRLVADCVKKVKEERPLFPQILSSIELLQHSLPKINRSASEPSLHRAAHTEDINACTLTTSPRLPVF
Chain of B-Raf (P15056 whole entry): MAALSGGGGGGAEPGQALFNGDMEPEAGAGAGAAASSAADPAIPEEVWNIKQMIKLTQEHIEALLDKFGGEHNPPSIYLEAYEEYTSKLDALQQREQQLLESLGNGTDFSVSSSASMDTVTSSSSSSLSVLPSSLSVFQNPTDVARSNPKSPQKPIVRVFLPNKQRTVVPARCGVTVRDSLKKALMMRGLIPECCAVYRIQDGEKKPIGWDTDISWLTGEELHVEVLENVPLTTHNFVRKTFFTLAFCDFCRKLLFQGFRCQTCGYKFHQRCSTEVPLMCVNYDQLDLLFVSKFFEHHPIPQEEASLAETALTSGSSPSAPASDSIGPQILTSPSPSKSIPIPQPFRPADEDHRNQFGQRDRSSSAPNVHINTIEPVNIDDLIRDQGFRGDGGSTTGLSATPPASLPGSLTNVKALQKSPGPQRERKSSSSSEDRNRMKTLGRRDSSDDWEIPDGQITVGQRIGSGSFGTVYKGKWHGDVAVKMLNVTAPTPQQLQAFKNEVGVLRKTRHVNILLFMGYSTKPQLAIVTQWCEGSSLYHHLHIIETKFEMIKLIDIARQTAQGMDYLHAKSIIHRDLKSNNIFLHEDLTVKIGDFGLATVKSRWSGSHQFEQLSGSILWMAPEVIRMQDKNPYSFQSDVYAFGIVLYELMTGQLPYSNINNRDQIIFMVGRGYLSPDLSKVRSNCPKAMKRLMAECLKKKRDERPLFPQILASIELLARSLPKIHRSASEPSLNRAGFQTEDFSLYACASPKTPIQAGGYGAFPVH

O=C1c2ccccc2C(O)(c2ccc3[nH]c(=O)[nH]c3c2)N1c1cccc(Cl)c1F (centres unmarked) [Entry 306, 5-[2-(3-chloro-2-fluorophenyl)-1-hydroxy-3-oxo-2,3-dihydro-1H-isoindol-1-yl]-1,3-dihydro-2H-benzimidazol-2-one]
IC50 [1, 3]: 1000 to 10000 nM
IC50 [2, 4]: 1000 to 10000 nM

COC(=O)Nc1nc2cc(C3(O)c4ccccc4C(=O)N3Cc3cccnc3)ccc2[nH]1 (centres unmarked) [Entry 113, methyl {5-[1-hydroxy-3-oxo-2-(pyridin-3-ylmethyl)-2,3-dihydro-1H-isoindol-1-yl]-1H-benzimidazol-2-yl}carbamate]
IC50 ([1]; read-out: cRaf-1 IC50): 100 to 1000 nM
IC50 ([2]; read-out: bRaf IC50): 100 to 1000 nM

C#CCCC(=O)Nc1nc2ccc(C3(O)c4ccccc4C(=O)N3Cc3ccccc3)cc2[nH]1 (centres unmarked) [Entry 253, N-{6-[1-hydroxy-3-oxo-2-(phenylmethyl)-2,3-dihydro-1H-isoindol-1-yl]-1H-benzimidazol-2-yl}pent-4-ynamide]
IC50 ([1]; read-out: cRaf-1 IC50): < 100 nM
IC50 ([2]; read-out: bRaf IC50): < 100 nM

COC(=O)Nc1nc2ccc(C3(O)c4cc(Cl)c(Cl)cc4C(=O)N3c3cccc(Br)c3)cc2[nH]1 (centres unmarked) [Entry 266, methyl {6-[2-(3-bromophenyl)-5,6-dichloro-1-hydroxy-3-oxo-2,3-dihydro-1H-isoindol-1-yl]-1H-benzimidazol-2-yl}carbamate]
IC50 ([1]; read-out: cRaf-1 IC50): 1000 to 10000 nM
IC50 ([2]; read-out: bRaf IC50): 1000 to 10000 nM

COC(=O)Nc1nc2cc(C3(O)c4ccccc4C(=O)N3c3ccc(Cl)c(C)c3)ccc2[nH]1 (centres unmarked) [Entry 180, methyl {5-[2-(4-chloro-3-methylphenyl)-1-hydroxy-3-oxo-2,3-dihydro-1H-isoindol-1-yl]-1H-benzimidazol-2-yl}carbamate]
IC50 ([1]; read-out: cRaf-1 IC50): < 100 nM
IC50 ([2]; read-out: bRaf IC50): < 100 nM

CN1CCC(CCOC(=O)Nc2nc3cc(C4(O)c5ccccc5C(=O)N4c4cccc(Cl)c4F)ccc3[nH]2)CC1 (centres unmarked) [Entry 317, 2-(1-methylpiperidin-4-yl)ethyl {5-[2-(3-chloro-2-fluorophenyl)-1-hydroxy-3-oxo-2,3-dihydro-1H-isoindol-1-yl]-1H-benzimidazol-2-yl}carbamate]
IC50 [1, 3]: < 100 nM
IC50 [2, 4]: < 100 nM

COC(=O)Nc1nc2cc(C3(O)c4ccccc4C(=O)N3C3CCCCC3)ccc2[nH]1 (centres unmarked) [Entry 167, methyl [5-(2-cyclohexyl-1-hydroxy-3-oxo-2,3-dihydro-1H-isoindol-1-yl)-1H-benzimidazol-2-yl]carbamate]
IC50 ([1]; read-out: cRaf-1 IC50): < 100 nM
IC50 ([2]; read-out: bRaf IC50): < 100 nM

COC(=O)Nc1nc2cc(C3(O)c4ccccc4C(=O)N3CC(C)C)ccc2[nH]1 (centres unmarked) [Entry 162, methyl {5-[1-hydroxy-2-(2-methylpropyl)-3-oxo-2,3-dihydro-1H-isoindol-1-yl]-1H-benzimidazol-2-yl}carbamate]
IC50 ([1]; read-out: cRaf-1 IC50): 100 to 1000 nM
IC50 ([2]; read-out: bRaf IC50): 100 to 1000 nM

COC(=O)Nc1nc2cc(C3(O)c4ccccc4C(=O)N3c3cccc(Br)c3)ccc2[nH]1 (centres unmarked) [Entry 134, methyl {5-[2-(3-bromophenyl)-1-hydroxy-3-oxo-2,3-dihydro-1H-isoindol-1-yl]-1H-benzimidazol-2-yl}carbamate]
IC50 ([1]; read-out: cRaf-1 IC50): < 100 nM
IC50 ([2]; read-out: bRaf IC50): < 100 nM

COC(=O)Nc1nc2cc(C(=O)c3ccccc3C(=O)OCc3ccccc3)ccc2[nH]1 [Entry 93, Phenylmethyl 2-[(2-{[(methyloxy)carbonyl]amino}-1H-benzimidazol-5-yl)carbonyl]benzoate]
IC50 ([1]; read-out: cRaf-1 IC50): 100 to 1000 nM
IC50 ([2]; read-out: bRaf IC50): 100 to 1000 nM

O=C(Nc1nc2cc(C3(O)c4ccccc4C(=O)N3Cc3ccccc3)ccc2[nH]1)OC1CCCCC1 (centres unmarked) [Entry 185, cyclohexyl {5-[1-hydroxy-3-oxo-2-(phenylmethyl)-2,3-dihydro-1H-isoindol-1-yl]-1H-benzimidazol-2-yl}carbamate]
IC50 ([1]; read-out: cRaf-1 IC50): 100 to 1000 nM
IC50 ([2]; read-out: bRaf IC50): 100 to 1000 nM

NC(=O)c1cccc(N2C(=O)c3ccccc3C2(O)c2ccc3c(c2)NC(=O)CO3)c1 (centres unmarked) [Entry 81, 3-[1-hydroxy-3-oxo-1-(3-oxo-3,4-dihydro-2H-1,4-benzoxazin-6-yl)-1,3-dihydro-2H-isoindol-2-yl]benzamide]
IC50 ([1]; read-out: cRaf-1 IC50): 1000 to 10000 nM
IC50 ([2]; read-out: bRaf IC50): 1000 to 10000 nM

C#CCOC(=O)Nc1nc2cc(C3(O)c4ccccc4C(=O)N3Cc3ccccc3)ccc2[nH]1 (centres unmarked) [Entry 108, prop-2-yn-1-yl {5-[1-hydroxy-3-oxo-2-(phenylmethyl)-2,3-dihydro-1H-isoindol-1-yl]-1H-benzimidazol-2-yl}carbamate]
IC50 ([1]; read-out: cRaf-1 IC50): < 100 nM
IC50 ([2]; read-out: bRaf IC50): < 100 nM

O=C(Nc1nc2ccc(C3(O)c4ccccc4C(=O)N3c3cccc(Cl)c3F)cc2[nH]1)OCC1CCC1 (centres unmarked) [Entry 344, cyclobutylmethyl {6-[2-(3-chloro-2-fluorophenyl)-1-hydroxy-3-oxo-2,3-dihydro-1H-isoindol-1-yl]-1H-benzimidazol-2-yl}carbamate]
IC50 [1, 3]: < 100 nM
IC50 [2, 4]: < 100 nM

Cc1ccnc(Nc2nc3cc(C4(O)c5ccccc5C(=O)N4c4cccc(Cl)c4F)ccc3[nH]2)n1 (centres unmarked) [Entry 385, 2-(3-chloro-2-fluorophenyl)-3-hydroxy-3-{2-[(4-methylpyrimidin-2-yl)amino]-1H-benzimidazol-5-yl}-2,3-dihydro-1H-isoindol-1-one]
IC50 [1, 3]: < 100 nM
IC50 [2, 4]: < 100 nM

CN1CCC[C@H]1COC(=O)Nc1nc2ccc(C3(O)c4ccccc4C(=O)N3c3cccc(Cl)c3F)cc2[nH]1 (stereo partly drawn) [Entry 303, [(2S)-1-methylpyrrolidin-2-yl]methyl {6-[2-(3-chloro-2-fluorophenyl)-1-hydroxy-3-oxo-2,3-dihydro-1H-isoindol-1-yl]-1H-benzimidazol-2-yl}carbamate]
IC50 [1, 3]: < 100 nM
IC50 [2, 4]: < 100 nM

COC(=O)Nc1nc2cc(C3(O)c4ccccc4C(=O)N3c3cc(Cl)cc(Cl)c3)ccc2[nH]1 (centres unmarked) [Entry 155, methyl {5-[2-(3,5-dichlorophenyl)-1-hydroxy-3-oxo-2,3-dihydro-1H-isoindol-1-yl]-1H-benzimidazol-2-yl}carbamate]
IC50 ([1]; read-out: cRaf-1 IC50): < 100 nM
IC50 ([2]; read-out: bRaf IC50): < 100 nM

COC(=O)Nc1nc2cc(C3(O)c4ccccc4C(=O)N3c3ccc(Cl)c(Cl)c3)ccc2[nH]1 (centres unmarked) [Entry 177, methyl {5-[2-(3,4-dichlorophenyl)-1-hydroxy-3-oxo-2,3-dihydro-1H-isoindol-1-yl]-1H-benzimidazol-2-yl}carbamate]
IC50 ([1]; read-out: cRaf-1 IC50): < 100 nM
IC50 ([2]; read-out: bRaf IC50): < 100 nM

CC(=O)N1CCC(C(=O)Nc2nc3cc(C4(O)c5ccccc5C(=O)N4c4cccc(Cl)c4F)ccc3[nH]2)CC1 (centres unmarked) [Entry 326, 1-acetyl-N-{5-[2-(3-chloro-2-fluorophenyl)-1-hydroxy-3-oxo-2,3-dihydro-1H-isoindol-1-yl]-1H-benzimidazol-2-yl}piperidine-4-carboxamide]
IC50 [1, 3]: < 100 nM
IC50 [2, 4]: < 100 nM

O=C1c2c(F)ccc(F)c2C(O)(c2ccc3[nH]c(Nc4ncccn4)nc3c2)N1c1cccc(Cl)c1F (centres unmarked) [Entry 379, 2-(3-chloro-2-fluorophenyl)-4,7-difluoro-3-hydroxy-3-[2-(pyrimidin-2-ylamino)-1H-benzimidazol-5-yl]-2,3-dihydro-1H-isoindol-1-one]
IC50 [1, 3]: < 100 nM
IC50 [2, 4]: < 100 nM

COC(=O)Nc1nc2cc(C3(O)c4ccccc4C(=O)N3c3cccc(C)c3)ccc2[nH]1 (centres unmarked) [Entry 115, methyl {5-[1-hydroxy-2-(3-methylphenyl)-3-oxo-2,3-dihydro-1H-isoindol-1-yl]-1H-benzimidazol-2-yl}carbamate]
IC50 ([1]; read-out: cRaf-1 IC50): < 100 nM
IC50 ([2]; read-out: bRaf IC50): < 100 nM

COC(C)CCOC(=O)Nc1nc2cc(C3(O)c4ccccc4C(=O)N3Cc3ccccc3)ccc2[nH]1 (centres unmarked) [Entry 103, 3-(methyloxy)butyl {5-[1-hydroxy-3-oxo-2-(phenylmethyl)-2,3-dihydro-1H-isoindol-1-yl]-1H-benzimidazol-2-yl}carbamate]
IC50 ([1]; read-out: cRaf-1 IC50): < 100 nM
IC50 ([2]; read-out: bRaf IC50): < 100 nM
